Read-outs that look alike come from different tables or passages of the source. One block for each compound: values may come before it. Starred links: 1 amine or outer side, 2 acyl side, 3 side chain; linkers in the order of their positions; H or OH if unused. Non-standard residues stand in square brackets, D forms with d. Residues, ends and D or L forms follow the SMILES beside them. X2 = CCCC[C@@H](CN[*:1])C(=O)[*:2]; X1 = CCCC[C@H](CN[*:1])C(=O)[*:2]
How the values were obtained:
[1] = tested on: PTHR1; experiment: cAMP | pEC50
Text: Table printed on a drawing sheet, FIG. 2
(§1) Head of the field: cAMP | pEC50
First copying reader's note: The error (±) stands inside the result cells.

[2] = tested on: PTHR1; experiment: β-arr2 | pEC50
[3] = tested on: PTHR1; experiment: β-arr1 | pEC50
[4] = tested on: PTHR1; experiment: β-arr1 | pEC50; remark: listed apart in the source
[5] = tested on: PTHR1; experiment: β-arr2 | pEC50; remark: listed apart in the source
[6] = tested on: PTHR1; experiment: cAMP | pEC50; remark: listed apart in the source
Text: Table printed on a drawing sheet, FIG. 5
as §1
The patent's description of the figure: FIG. 5 depicts graphs and a corresponding table reporting the EC50 and Emax of PTHR1 agonists Ligands 8-13 (SEQ. ID. NOS: 8-13) for cAMP signaling and β-arrestin (βarr) recruitment.
First copying reader's note: Each value cell carries its own ± error; the rows for Ligand 8, 10 and 12 are printed on dark shading.
Where the first naming reader finds the target: description_of_the_figure: EC50 and Emax of PTHR1 agonists Ligands 8-13 (SEQ. ID. NOS: 8-13) for cAMP signaling and β-arrestin (βarr) recruitment.

[7] = biological target: T1, PTHR2 (Homo sapiens, UniProt P49190); experiment: PTHR2 activation, cAMP production (GloSensor) in HEK293 cells; type: cell-based; design: expressed in transfected cells; key to PTHR2 Activation: Derivative EC50/PTH EC50: *** denotes poor tolerance of β amino acid for PTHR2 activation; details: for PTHR2 Activation: Derivative EC50/PTH EC50: normalized to EC50 of PTH(1-34)-NH2 ([…] printed), cAMP production
T1 sequence (P49190 25-550): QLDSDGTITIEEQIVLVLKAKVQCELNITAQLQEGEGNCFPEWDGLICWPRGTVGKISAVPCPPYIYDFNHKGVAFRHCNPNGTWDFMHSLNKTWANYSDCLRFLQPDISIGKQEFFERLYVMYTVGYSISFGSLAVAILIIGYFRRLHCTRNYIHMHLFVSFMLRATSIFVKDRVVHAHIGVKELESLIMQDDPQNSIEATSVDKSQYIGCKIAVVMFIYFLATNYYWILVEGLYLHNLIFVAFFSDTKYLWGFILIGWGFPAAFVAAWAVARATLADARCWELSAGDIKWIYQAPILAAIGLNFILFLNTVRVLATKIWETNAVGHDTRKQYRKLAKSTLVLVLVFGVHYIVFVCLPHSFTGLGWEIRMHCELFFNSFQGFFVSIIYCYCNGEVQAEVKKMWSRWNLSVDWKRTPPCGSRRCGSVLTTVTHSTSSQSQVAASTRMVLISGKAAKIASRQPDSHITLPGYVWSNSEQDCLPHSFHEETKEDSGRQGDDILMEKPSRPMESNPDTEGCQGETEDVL
Outline: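 HEK293 cells stably expressing PTHR2; receptor activation read as cAMP production by GloSensor luminescence. Dose-response curves fit with a four-parameter sigmoidal equation; data are mean±s.e.m. of four independent measurements.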

[8] = biological target: T2, PTHR1 (Homo sapiens, UniProt Q03431); experiment: PTHR1 activation, cAMP production (GloSensor) in HEK293 cells; type: cell-based; design: expressed in transfected cells; details: for PTHR1 Activation: Derivative EC50/PTH EC50: normalized to EC50 of PTH(1-34)-NH2 ([…]), cAMP production
T2 sequence (Q03431 27-593): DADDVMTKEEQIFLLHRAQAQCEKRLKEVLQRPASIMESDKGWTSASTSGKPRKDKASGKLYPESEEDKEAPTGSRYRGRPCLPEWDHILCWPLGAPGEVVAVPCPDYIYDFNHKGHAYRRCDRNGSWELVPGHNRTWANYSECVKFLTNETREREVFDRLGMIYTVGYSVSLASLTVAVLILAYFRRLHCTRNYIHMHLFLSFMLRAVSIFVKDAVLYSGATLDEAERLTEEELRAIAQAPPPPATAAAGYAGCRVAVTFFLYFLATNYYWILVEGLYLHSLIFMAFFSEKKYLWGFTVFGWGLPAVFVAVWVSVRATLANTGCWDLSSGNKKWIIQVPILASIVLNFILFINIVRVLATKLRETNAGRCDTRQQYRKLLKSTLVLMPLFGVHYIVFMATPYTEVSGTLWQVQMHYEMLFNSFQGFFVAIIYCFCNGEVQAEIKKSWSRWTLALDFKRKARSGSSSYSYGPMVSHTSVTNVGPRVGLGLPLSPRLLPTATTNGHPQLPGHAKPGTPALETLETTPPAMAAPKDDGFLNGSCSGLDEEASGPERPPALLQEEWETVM

[9] = tested on: PTHR1 and PTHR2; experiment: Tolerance pattern of β residues for PTHR1 and PTHR2 activation; type: cell-based; design: key: “*” denotes potent PTHR1-selective agonism; “#” denotes potent PTHR2-selective agonism; “*#” denotes potent agonism of both PTHR1 and PTHR2; details: PTHR1 vs PTHR2 agonism
Text: Enhanced selectivity via double α→β replacement.

[10] = biological target: T2, PTHR1; experiment: Wash-out assay, duration of PTHR1 activation; type: cell-based; design: expressed in transfected cells; host or cells: cells stably expressing PTHR1
Text: (§2) Duration of activation for PTHR1 and PTHR2. To assess the duration of PTHR1 and PTHR2 activation induced by α/β-peptides 14 and 15, the time course of cAMP production by each receptor was examined after stimulation with an agonist and subsequent washing of the cells to remove unbound peptide (wash-out assay). […] During the initial “ligand-on” phase, cells stably expressing PTHR1 or PTHR2 were stimulated with an agonist concentration corresponding to ˜EC80; the medium contained D-luciferin. […] After the addition of fresh medium containing D-luciferin, the luminescence decay is measured. The area under the “ligand-off” curve (AUC) reflects the duration of signaling, which may be related to residence time of the agonist on the receptor but could have other origins at the molecular level.

[11] = biological target: T1, PTHR2; experiment: Wash-out assay, duration of PTHR2 activation; type: cell-based; design: expressed in transfected cells; host or cells: cells stably expressing PTHR2
Text: as §2

[12] = HEK-293 cells, GloSensor cAMP, read-out: EC50 (nM) of PTHR2 Activation
[13] = HEK-293 cells, GloSensor cAMP, read-out: EC50 (nM) of PTHR1 Activation
[14] = read-out: Normalized ligand-on Emax

Compound: BA058: also known as abaloparatide
cAMP | pEC50 [1]: 10.05 ± 0.05
β-arr2 | pEC50 [2]: 8.52 ± 0.06
β-arr1 | pEC50 [3]: 8.38 ± 0.12

Compound: CCCC[C@H](CNC(=O)[C@H](CC(C)C)NC(=O)[C@H](CCC(N)=O)NC(=O)[C@@H](NC(=O)[C@H](CCC(=O)O)NC(=O)[C@H](CO)NC(=O)[C@@H](NC(=O)[C@@H](N)CO)C(C)C)[C@@H](C)CC)C(=O)N[C@@H](Cc1c[nH]cn1)C(=O)N[C@@H](CC(N)=O)C(=O)N[C@@H](CC(C)C)C(=O)NCC(=O)N[C@@H](CCCCN)C(=O)N[C@@H](Cc1c[nH]cn1)C(=O)N[C@@H](CC(C)C)C(=O)N[C@@H](CC(N)=O)C(=O)N[C@@H](CO)C(=O)N[C@@H](CCSC)C(=O)N[C@@H](CCC(=O)O)C(=O)N[C@@H](CCCNC(=N)N)C(=O)N[C@H](C(=O)N[C@@H](CCC(=O)O)C(=O)N[C@@H](Cc1c[nH]c2ccccc12)C(=O)N[C@@H](CC(C)C)C(=O)N[C@@H](CCCNC(=N)N)C(=O)N[C@@H](CCCCN)C(=O)N[C@@H](CCCCN)C(=O)N[C@@H](CC(C)C)C(=O)N[C@@H](CCC(N)=O)C(=O)N[C@@H](CC(=O)O)C(=O)N[C@H](C(=O)N[C@@H](Cc1c[nH]cn1)C(=O)N[C@@H](CC(N)=O)C(=O)N[C@@H](Cc1ccccc1)C(N)=O)C(C)C)C(C)C [SEQ. ID. NO: 29] (H-SVSEIQL[X1]HNLGKHLNSMERVEWLRKKLQDVHNF-NH2; N-terminus assumed)
EC50 [7, 12]: > 1000 nM
PTHR2 Activation: Derivative EC50/PTH EC50 [7]: ***
EC50 [8, 13]: 0.4 ± 0.07 nM
PTHR1 Activation: Derivative EC50/PTH EC50 [8]: 1.05
Tolerance Pattern of β AA [9]: *

Compound: CC[C@H](C)[C@H](NC(=O)[C@H](CCC(=O)O)NC(=O)[C@H](CO)NC(=O)[C@@H](NC(=O)[C@@H](N)CO)C(C)C)C(=O)N[C@@H](CCC(N)=O)C(=O)N[C@@H](CC(C)C)C(=O)N[C@@H](CCSC)C(=O)N[C@@H](Cc1c[nH]cn1)C(=O)N[C@@H](CC(N)=O)C(=O)N[C@@H](CC(C)C)C(=O)NCC(=O)N[C@@H](CCCCN)C(=O)N[C@@H](Cc1c[nH]cn1)C(=O)N[C@@H](CC(C)C)C(=O)N[C@@H](CC(N)=O)C(=O)N[C@@H](CO)C(=O)N[C@@H](CCSC)C(=O)N[C@@H](CCC(=O)O)C(=O)N[C@@H](CCCNC(=N)N)C(=O)N[C@H](C(=O)N[C@@H](CCC(=O)O)C(=O)N[C@@H](Cc1c[nH]c2ccccc12)C(=O)N[C@@H](CC(C)C)C(=O)N[C@@H](CCCNC(=N)N)C(=O)N[C@@H](CCCCN)C(=O)N[C@@H](CCCCN)C(=O)N[C@@H](CC(C)C)C(=O)N[C@@H](CCC(N)=O)C(=O)N[C@@H](CC(=O)O)C(=O)N[C@H](C(=O)N[C@@H](Cc1c[nH]cn1)C(=O)N[C@@H](CC(N)=O)C(=O)N[C@@H](Cc1ccccc1)C(N)=O)C(C)C)C(C)C [PTH(1-34)-NH2, reference compound]
Emax ([7]; HEK293): 100%
EC50 [7, 12]: 0.97 nM
EC50 ([7]; Table 5, HEK293 cells stably expressing PTHR2, read-out: PTHR2 EC50): 1.07 ± 0.14 nM
Normalized ligand-off AUC ([10]; PTHR1, after washout, PTH(1-34)-NH2 = 100): 100
Emax [10, 14]: 100%
Emax ([8]; HEK293): 100%
Normalized ligand-off AUC ([11]; PTHR2, after washout, PTH(1-34)-NH2 = 100): 100
Emax [11, 14]: 100%

Second part, led by results:

β-arr1 | pEC50 [4]: 8.03 ± 0.10
β-arr2 | pEC50 [5]: 8.16 ± 0.09
cAMP | pEC50 [6]: 9.44 ± 0.08
Compound: Ligand 13: PTH(1-34) analogue with replaced residue at position 8 (character image) (SVSEIQLXHNLGKHLNSMERVEWLRKKLQDVHNF; non-natural residue at position 8; MOD_RES (8)..(8) X at position 8 is (S*)-Beta-2-Norleucine)

cAMP | pEC50 [1]: 9.06 ± 0.06
β-arr2 | pEC50 [2]: 8.20 ± 0.06
β-arr1 | pEC50 [3]: 8.16 ± 0.06
Compound: LA-PTH: long-acting PTH analog (AVAEIQLMHQRAKWIQDARRRAFLHKLIAEIHTAEI; Long-acting (LA)-PTH, a parathyroid hormone analog)

EC50 [8, 13]: 0.38 ± 0.07 nM
EC50 ([8]; Table 8, hPTHR1, read-out: PTHR1 EC50): 10.3 ± 1.65 nM
PTHR1 Activation: Derivative EC50/PTH EC50 [8]: 1.00
Compound: CCCC[C@@H](CNC(=O)[C@H](CC(C)C)NC(=O)[C@H](CCC(N)=O)NC(=O)[C@@H](NC(=O)[C@H](CCC(=O)O)NC(=O)[C@H](CO)NC(=O)[C@@H](NC(=O)[C@@H](N)CO)C(C)C)[C@@H](C)CC)C(=O)N[C@@H](Cc1c[nH]cn1)C(=O)N[C@@H](CC(N)=O)C(=O)N[C@@H](CC(C)C)C(=O)NCC(=O)N[C@@H](CCCCN)C(=O)N[C@@H](Cc1c[nH]cn1)C(=O)N[C@@H](CC(C)C)C(=O)N[C@@H](CC(N)=O)C(=O)N[C@@H](CO)C(=O)N[C@@H](CCSC)C(=O)N[C@@H](CCC(=O)O)C(=O)N[C@@H](CCCNC(=N)N)C(=O)N[C@H](C(=O)N[C@@H](CCC(=O)O)C(=O)N[C@@H](Cc1c[nH]c2ccccc12)C(=O)N[C@@H](CC(C)C)C(=O)N[C@@H](CCCNC(=N)N)C(=O)N[C@@H](CCCCN)C(=O)N[C@@H](CCCCN)C(=O)N[C@@H](CC(C)C)C(=O)N[C@@H](CCC(N)=O)C(=O)N[C@@H](CC(=O)O)C(=O)N[C@H](C(=O)N[C@@H](Cc1c[nH]cn1)C(=O)N[C@@H](CC(N)=O)C(=O)N[C@@H](Cc1ccccc1)C(N)=O)C(C)C)C(C)C [SEQ. ID. NO: 37] (H-SVSEIQL[X2]HNLGKHLNSMERVEWLRKKLQDVHNF-NH2; N-terminus assumed)
EC50 [7, 12]: 10.3 ± 1.65 nM
PTHR2 Activation: Derivative EC50/PTH EC50 [7]: 11.85
Tolerance Pattern of β AA [9]: *

β-arr1 | pEC50 [4]: 8.33 ± 0.05
β-arr2 | pEC50 [5]: 8.28 ± 0.02
cAMP | pEC50 [6]: 9.03 ± 0.10
Compound: SVSEIQL^nLHNLGKHLNSMERVEWLRKKLQDVHNF (SVSEIQLXHNLGKHLNSMERVEWLRKKLQDVHNF; (R)-beta2-Nle at position 8; MOD_RES (8)..(8) X at position 8 is (R)-Beta-2-Norleucine.) [Ligand 11]

Reference: patent US11780901B2, “Analogues of parathyroid hormone (1-34) that function as agonists of the parathyroid hormone receptor-1 and display modified activity profiles” (Wisconsin Alumni Research Foundation, priority 2013, dated 2023)
